Results reported in the supplement of paper PMC11061612.

How the values were obtained:
Assay in all cases: combination Emax (second highest fraction inhibited in the dose matrix, 72 h); higher = more inhibition; extreme values may be limits of the assay
[1] = system: 639-V (Bladder Carcinoma)
Method in brief: (§1)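 After 24 hours at 37°C and 5% CO2 in 1536-well plates, cells in DMEM/F12 or RPMI plus 10% FBS received two-drug dose matrices for 72 hours. Viability came from CellTiter-Glo 2.0 luminescence and was scaled as inhibition, anchored at 0 by vehicle wells and at 1 by blank wells. Combination Emax is taken as the second-highest inhibition in the matrix, and Bliss excess as the observed combination effect less EA + EB − EA·EB, with EA and EB the single-agent effects.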

[2] = system: 8305C (Thyroid Gland Carcinoma)
Method in brief: as §1

[3] = system: CAL-54 (Kidney Carcinoma)
Method in brief: as §1

[4] = system: CTB-1 (B-Cell Non-Hodgkin's Lymphoma)
Method in brief: as §1

[5] = system: HARA (Squamous Cell Lung Carcinoma)
Method in brief: as §1

[6] = system: HO-1-u-1 (Oral Cavity Carcinoma)
Method in brief: as §1

[7] = system: K5 (Thyroid Gland Carcinoma)
Method in brief: as §1

[8] = system: KYSE-410 (Esophageal Squamous Cell Carcinoma)
Method in brief: as §1

[9] = system: LB771-HNC (Head and Neck Carcinoma)
Method in brief: as §1

[10] = system: LU-139 (Small Cell Lung Carcinoma)
Method in brief: as §1

[11] = system: MDA-MB-468 (Breast Carcinoma)
Method in brief: as §1

[12] = system: MHH-PREB-1 (B-Cell Non-Hodgkin's Lymphoma)
Method in brief: as §1

NB14 (Neuroblastoma) = system: NB14 (Neuroblastoma)
Method in brief: as §1

NCI-H2795 (Mesothelioma) = system: NCI-H2795 (Mesothelioma)
Method in brief: as §1

NCI-H28 (Mesothelioma) = system: NCI-H28 (Mesothelioma)
Method in brief: as §1

[13] = system: OVCAR-8 (Ovarian Carcinoma)
Method in brief: as §1

[14] = system: PCI-30 (Head and Neck Carcinoma)
Method in brief: as §1

[15] = system: SW1116 (Colorectal Carcinoma)
Method in brief: as §1

[16] = system: SW1271 (Small Cell Lung Carcinoma)
Method in brief: as §1

[17] = system: SW626 (Colorectal Carcinoma)
Method in brief: as §1

SMILES | combination Emax [1] | combination Emax [2] | combination Emax [3] | combination Emax [4] | combination Emax [5] | combination Emax [6] | combination Emax [7] | combination Emax [8] | combination Emax [9] | combination Emax [10] | combination Emax [11] | combination Emax [12] | combination Emax (NB14 (Neuroblastoma)) | combination Emax (NCI-H2795 (Mesothelioma)) | combination Emax (NCI-H28 (Mesothelioma)) | combination Emax [13] | combination Emax [14] | combination Emax [15] | combination Emax [16] | combination Emax [17]
COc1cccc(OCCCN)c1-c1cc(Nc2cnc(C#N)cn2)n[nH]1 [Prexasertib] + CN(C)CCCOc1ccc(-c2ccc3ncc4c(c3c2)n(C2CCOCC2)c(=O)n4C)cn1 [AZD0156] (first compound max 1 µM, 7x7, partner max 1 µM) | 0.446 | 0.737 | 0.863 | 0.96 | 0.986 | 0.975 | 0.767 | 0.483 | 0.587 | 0.505 | 0.492 | 0.974 | 1 | 0.789 | 0.626 | 0.988 | 0.813 | 0.516 | 0.678 | 0.707
CCN(CCO)CCCOc1ccc2c(Nc3cc(CC(=O)Nc4cccc(F)c4)[nH]n3)ncnc2c1 [AZD2811] + O=C(c1cc(Cc2n[nH]c(=O)c3ccccc23)ccc1F)N1CCN(C(=O)C2CC2)CC1 [Olaparib] (first compound max 1 µM, 7x7, partner max 10 µM) | 0.237 | 0.169 | 0.223 | 0.515 | 0.318 | 0.274 | 0.329 | 0.165 | 0.201 | 0.307 | 0.413 | 0.125 | 0.889 | 0.395 | 0.229 | 0.367 | 0.265 | 0.223 | 0.17 | 0.213
CCN(CCO)CCCOc1ccc2c(Nc3cc(CC(=O)Nc4cccc(F)c4)[nH]n3)ncnc2c1 [AZD2811] + C=CCn1c(=O)c2cnc(Nc3ccc(N4CCN(C)CC4)cc3)nc2n1-c1cccc(C(C)(C)O)n1 [AZD1775] (first compound max 1 µM, partner max 1 µM) | 0.265 | 0.89 | 0.622 | 0.876 | 0.788 | 0.54 | 0.507 | 0.267 | 0.359 | 0.567 | 0.434 | 0.718 | 1 | 0.441 | 0.278 | 0.791 | 0.344 | 0.208 | 0.586 | 0.427
CN(CCO)CC[C@H](CSc1ccccc1)Nc1ccc(S(=O)(=O)NC(=O)c2ccc(N3CCC([C@@H](O)c4ccccc4-c4ccc(Cl)cc4)CC3)cc2)cc1S(=O)(=O)C(F)(F)F [AZD4320] + C1CN(CCC1(C(=O)N[C@@H](CCO)C2=CC=C(C=C2)Cl)N)C3=NC=NC4=C3C=CN4 [Capivasertib] (first compound max 1 µM, 7x7, partner max 3 µM) | 0.154 | 0.506 | 0.338 | 0.295 | 0.298 | 0.744 | 0.499 | 0.0467 | 0.259 | 0.912 | 0.821 | 0.173 | 0.947 | 0.271 | 0.159 | 0.146 | 0.191 | 0.139 | 0.158 | 0.643
Cc1c2c(nn1C)CSCc1cc(n(C)n1)CSc1cc(c3ccccc3c1)OCCCc1c(C(=O)O)n(C)c3c-2c(Cl)ccc13 [AZD5991] + CC1(C)CCC(CN2CCN(c3ccc(C(=O)NS(=O)(=O)c4ccc(NCC5CCOCC5)c([N+](=O)[O-])c4)c(Oc4cnc5[nH]ccc5c4)c3)CC2)=C(c2ccc(Cl)cc2)C1 [Venetoclax] (first compound max 1 µM, 7x7, partner max 1 µM) | 0.194 | 0.379 | 0.163 | 0.17 | 0.294 | 0.358 | 0.183 | 0.156 | 0.587 | 0.777 | 0.662 | 0.13 | 1 | 0.793 | 0.185 | 0.189 | 0.218 | 0.145 | 0.0732 | 0.205
CN(CCO)CC[C@H](CSc1ccccc1)Nc1ccc(S(=O)(=O)NC(=O)c2ccc(N3CCC([C@@H](O)c4ccccc4-c4ccc(Cl)cc4)CC3)cc2)cc1S(=O)(=O)C(F)(F)F [AZD4320] + Cc1cc2ncnn2cc1Nc1ncc2c(n1)n(C1CCOCC1)c(=O)n2C [AZD7648] (first compound max 1 µM, 7x7, partner max 10 µM) | 0.208 | 0.699 | 0.372 | 0.317 | 0.244 | 0.325 | 0.392 | 0.134 | 0.138 | 0.937 | 0.747 | 0.119 | 0.966 | 0.43 | 0.15 | 0.14 | 0.178 | 0.117 | 0.216 | 0.577
